Test results taken from paper PMC10920834, “Synthesis, anticancer activity, and molecular docking of half-sandwich iron(II) cyclopentadienyl complexes with maleimide and phosphine or phosphite ligands” (Scientific Reports, 2024).

Legend:
Assay type in all cases: cell-based, human
[1] = system: HL-60 cells; test: Cell viability resazurin assay, HL-60 cells; settings: for viability of HL-60 cells relative to control: ± SD
Protocol: (§1) The A549 (human non-small cell lung cancer) cell line was obtained from the American Type Culture Collection (ATCC) and cultured in Dulbecco's Modified Eagle Medium (DMEM) with 10% fetal bovine serum (FBS), 2 mM L-Glutamine, 25 mM HEPES and penicillin/streptomycin solution (100 U/ml and 100 µg/ml, respectively). The HL-60 (human promyelocytic leukemia) cell line was also obtained from the American Type Culture Collection (ATCC) and cultured in Iscove’s Modified Dulbecco's Medium (IMDM) with 15% fetal bovine serum (FBS), 2 mM L-Glutamine, 25 mM HEPES and penicillin/streptomycin solution (100 U/ml and 100 µg/ml, respectively). Both cell lines were cultured in flasks at 37 °C in 5% CO2 and sub-cultured every 2–3 days to maintain exponential growth.
(§2) Firstly, resazurin salt powder was dissolved in sterile 1 × PBS. Cells were then seeded on the 96-well plates in the count of 1 × 10^4 in the case of HL-60 cells and of 5 × 10^4 for PBM cells and of 5 × 10^3 for A549 cells per well. A549 cells were seeded 24 h prior to treatment with the complexes to allow cell adherence to 96-well plate. Iron(II) complexes were added to wells to obtain final concentrations of 0.5, 1, 2.5, 5, 10, 25, 50, 100 and 250 μM. Subsequently, plates were incubated at 37 °C in 5% CO2 for 2 h and 24 h. After that 10 μl of resazurin salt was added to each well and plates again were incubated in 37 °C in 5% CO2 for 2 h. Finally, fluorescence was measured with microplate reader Synergy HT (Bio-Tek Instruments, USA) using an excitation wavelength of 530/25 and an emission wavelength of 590/35 nm. The effects of iron(II) complexes were calculated as the percentage of control fluorescence. IC50 (half maximal inhibitory concentration) values were calculated using a website algorithm (https://www.aatbio.com/tools/ic50-calculator). All assays were performed in octuplicate.

[2] = system: A549 cells; test: Cell viability resazurin assay, A549 cells; settings: for viability of A549 cells relative to control: ± SD
Protocol: as §1, §2

[3] = system: PBM cells; test: Cell viability resazurin assay, PBM cells; settings: for viability of PBM cells relative to control: ± SD
Excerpt: Peripheral blood mononuclear (PBM) cells were isolated from a leukocyte-buffy coat collected from the blood of healthy, non-smoking donors at the Blood Bank in Lodz, Poland. The study protocol received approval from the Committee for Research on Human Subjects of the University of Lodz (17/KBBN-UŁ/III/2019). The initial step of isolation process involved mixing buffy coats with PBS in a 1:1 ratio. Subsequently, the mixture was centrifuged using a density gradient of Lymphosep (Cytogen, Zgierz, Poland) at 2200 RPM for 20 min, employing the lowest values for acceleration and deceleration. PBM cells were collected and washed three times by centrifugation with 1 × PBS. Following isolation, the cells were suspended in RPMI 1640 medium.
as §2

O=C1C=CC(=O)[N-]1.[C-]#[O+].[Fe+2].c1cc[cH-]c1.c1ccc(OP(Oc2ccccc2)Oc2ccccc2)cc1 [3b, CpFe(CO)(P(OPh)3)(η^1-N-maleimidato)]
viability of HL-60 cells relative to control ([1]; 2 h incubation, 0.5 µM): 108.58 ± 5.93%
viability of HL-60 cells relative to control ([1]; 2 h incubation, 1 µM): 105.27 ± 5.97%
viability of HL-60 cells relative to control ([1]; 2 h incubation, 2.5 µM): 111.13 ± 4.29%
viability of HL-60 cells relative to control ([1]; 2 h incubation, 5 µM): 116.45 ± 4.31%
viability of HL-60 cells relative to control ([1]; 2 h incubation, 10 µM): 125.67 ± 4.5%
viability of HL-60 cells relative to control ([1]; 2 h incubation, 25 µM): 140.68 ± 7.01%
viability of HL-60 cells relative to control ([1]; 2 h incubation, 50 µM): 116.21 ± 2.09%
viability of HL-60 cells relative to control ([1]; 2 h incubation, 100 µM): 70.87 ± 2.53%
viability of HL-60 cells relative to control ([1]; 2 h incubation, 250 µM): 23.24 ± 0.25%
HL-60 cell viability, sharp increase up to ([1]; 2 h incubation, concentration not given): approximately 140%
IC50 ([1]; 24 h incubation): 9.09 µM
viability of HL-60 cells relative to control ([1]; 24 h incubation, 0.5 µM): 101.68 ± 1.04%
viability of HL-60 cells relative to control ([1]; 24 h incubation, 1 µM): 98.91 ± 4.85%
viability of HL-60 cells relative to control ([1]; 24 h incubation, 2.5 µM): 91.42 ± 3.16%
viability of HL-60 cells relative to control ([1]; 24 h incubation, 5 µM): 72.37 ± 3.19%
viability of HL-60 cells relative to control ([1]; 24 h incubation, 10 µM): 49.27 ± 1.71%
viability of HL-60 cells relative to control ([1]; 24 h incubation, 25 µM): 3.18 ± 0.36%
viability of HL-60 cells relative to control ([1]; 24 h incubation, 50 µM): 0.99 ± 0.02%
viability of HL-60 cells relative to control ([1]; 24 h incubation, 100 µM): 0.96 ± 0.1%
viability of HL-60 cells relative to control ([1]; 24 h incubation, 250 µM): 0.94 ± 0.06%
viability of A549 cells relative to control ([2]; 2 h incubation, 0.5 µM): 94.42 ± 12.46%
viability of A549 cells relative to control ([2]; 2 h incubation, 1 µM): 97.15 ± 8.30%
viability of A549 cells relative to control ([2]; 2 h incubation, 2.5 µM): 96.59 ± 9.16%
viability of A549 cells relative to control ([2]; 2 h incubation, 5 µM): 90.46 ± 7.14%
viability of A549 cells relative to control ([2]; 2 h incubation, 10 µM): 93.75 ± 11.55%
viability of A549 cells relative to control ([2]; 2 h incubation, 25 µM): 97.77 ± 7.39%
viability of A549 cells relative to control ([2]; 2 h incubation, 50 µM): 104.82 ± 7.84%
viability of A549 cells relative to control ([2]; 2 h incubation, 100 µM): 97.69 ± 11.65%
viability of A549 cells relative to control ([2]; 2 h incubation, 250 µM): 97.95 ± 13.58%
IC50 ([2]; 24 h incubation): 19.2 µM
viability of A549 cells relative to control ([2]; 24 h incubation, 0.5 µM): 91.38 ± 8.55%
viability of A549 cells relative to control ([2]; 24 h incubation, 1 µM): 92.49 ± 11.20%
viability of A549 cells relative to control ([2]; 24 h incubation, 2.5 µM): 78.64 ± 6.01%
viability of A549 cells relative to control ([2]; 24 h incubation, 5 µM): 80.46 ± 7.49%
viability of A549 cells relative to control ([2]; 24 h incubation, 10 µM): 80.04 ± 11.40%
viability of A549 cells relative to control ([2]; 24 h incubation, 25 µM): 25.66 ± 3.11%
viability of A549 cells relative to control ([2]; 24 h incubation, 50 µM): 22.34 ± 2.60%
viability of A549 cells relative to control ([2]; 24 h incubation, 100 µM): 42.71 ± 5.87%
viability of A549 cells relative to control ([2]; 24 h incubation, 250 µM): 28.61 ± 5.09%
viability of PBM cells relative to control ([3]; 2 h incubation, 0.5 µM): 98.5 ± 2.18%
viability of PBM cells relative to control ([3]; 2 h incubation, 1 µM): 99.88 ± 2.57%
viability of PBM cells relative to control ([3]; 2 h incubation, 2.5 µM): 97.35 ± 5.51%
viability of PBM cells relative to control ([3]; 2 h incubation, 5 µM): 100.32 ± 3.02%
viability of PBM cells relative to control ([3]; 2 h incubation, 10 µM): 99.06 ± 3.6%
viability of PBM cells relative to control ([3]; 2 h incubation, 25 µM): 98.42 ± 1.87%
viability of PBM cells relative to control ([3]; 2 h incubation, 50 µM): 100.03 ± 0.88%
viability of PBM cells relative to control ([3]; 2 h incubation, 100 µM): 98.48 ± 0.54%
viability of PBM cells relative to control ([3]; 2 h incubation, 250 µM): 99.51 ± 1.24%
IC50 ([3]; 24 h incubation): 5.8 µM
viability of PBM cells relative to control ([3]; 24 h incubation, 0.5 µM): 97.8 ± 2.01%
viability of PBM cells relative to control ([3]; 24 h incubation, 1 µM): 98.46 ± 7.18%
viability of PBM cells relative to control ([3]; 24 h incubation, 2.5 µM): 94.41 ± 2.27%
viability of PBM cells relative to control ([3]; 24 h incubation, 5 µM): 52.91 ± 0.63%
viability of PBM cells relative to control ([3]; 24 h incubation, 10 µM): 49.35 ± 1.94%
viability of PBM cells relative to control ([3]; 24 h incubation, 25 µM): 31 ± 1.1%
viability of PBM cells relative to control ([3]; 24 h incubation, 50 µM): 28.33 ± 2.17%
viability of PBM cells relative to control ([3]; 24 h incubation, 100 µM): 16.65 ± 0.55%
viability of PBM cells relative to control ([3]; 24 h incubation, 250 µM): 13.82 ± 0.52%
